Results: patent US20050074810A1, “Method for non-invasilvely determining the relative levels of two biological substances” (priority 2001, published 2005)
Where two headings read alike, the source gives them in different places.

What was measured:
[1] = in vivo, 4 mA for 5 minutes, 4.5 cm^2, lithium nitrate electrolyte; cited from earlier work
[2] = subdermal lactate 1.74 mM, ammonium 1.56 mM
Procedure: Experiments were performed in specially-designed iontophoresis diffusion cells (Laboratory Glass Apparatus, Berkeley, Calif., USA) as represented in FIG. 7.
The anodal and cathodal chambers contacted the outer surface of the skin and contained the receptor (collection) media, respectively, 80 mM Tris/TrisHCl and 25 mM Tris+34 mM Mops (both buffered to pH 7.4).
Dermatomed pig-ear skin was clamped between the two halves of the iontophoresis cell and each chamber was filled with the appropriate solution.
The sub-dermal chamber was filled with the “donor solution which was perfused continuously at 2-3 mL/hour by means of a peristaltic pump.
A current of 0.4 mA (0.5 mA/cm^2) was passed for a total of 5 hours between the Ag/AgCl electrodes which were inserted into the anodal and cathodal chambers.
Every hour, the entire anode and cathode solutions were withdrawn and the chambers were refilled with fresh buffer.

[3] = In vitro reverse iontophoretic extraction of mannitol and sodium (Example 3, second experiment)
Procedure: In a second experiment, performed under identical conditions to the first (see FIG. 11), mannitol concentration was 5 mM for the first three hours of experiment, it was then reduced to 3 mM for a subsequent period of one hour and then increased to 10 mM for a subsequent period of one hour.
(§1) During the first 3-hour period, the entire content of the cathode solution was withdrawn every 60 minutes and the chamber was refilled with fresh buffer.
During the second 1-hour period, the 5 mM mannitol donor solution was replaced with 3 mM mannitol, and the cathodal chamber was then sampled every 30 minutes.
During the third 1-hour period, the 3 mM mannitol donor solution was replaced with 10 mM mannitol, and the cathodal chamber was then sampled every 30 minutes.

[4] = In vitro reverse iontophoretic extraction of mannitol and sodium (Example 3, first experiment)
Procedure: The anode was placed in the sub-dermal, “donor” chamber, which contained a physiological pH 7.4 buffer (25 mM Tris/TrisHCl+133 mM NaCl) to which the analyte mannitol was added.
In a first experiment, mannitol concentration was 5 mM for the first three hours of experiment and was then increased to 10 mM for a subsequent period of three hours.
(§2) To facilitate the analytical chemistry, the donor solutions were spiked with ^14C-labeled mannitol.
The cathodal (collection) chamber, which contacted the outer surface of the skin contained a 25 mM Tris/TrisHCl buffer at pH 7.4.
as §1
During the second 3-hour period, the 5 mM mannitol donor solution was replaced with 10 mM mannitol, and the cathodal chamber was then sampled every 30 minutes.

[5] = In vitro reverse iontophoretic extraction of glucose and sodium (Example 5); assay type: in vitro ADME, pig; details: subdermal glucose 10 mM
Procedure: The anode was placed in the sub-dermal, “donor” chamber, which contained a physiological pH 7.4 buffer (25 mM Tris/TrisHCl+133 mM NaCl) to which the analyte glucose was added at a concentration of 10 mM.
To facilitate the analytical chemistry, the donor solutions were spiked with tritiated glucose.
(§3) The cathodal (collection) chamber, which contacted the outer surface of the skin, contained a 25 mM Tris/TrisHCl buffer at pH 7.4.
The experimental design was identical to that in FIG. 11, with the exception that glucose spiked with tritiated glucose replaced mannitol spiked with ^14C-labeled mannitol.
During this period, the entire content of the cathode solution was withdrawn every 60 minutes and the chamber was refilled with fresh buffer.

[6] = human volunteer, 0.3 mA/cm^2, 5.5 hours, 15 min samples, food ingested
Procedure: The distance between the chambers was approximately 8 cm.
The anode was positioned in one of the cells, which was filled with a solution containing a 10 mM Tris buffer pH 8.5+100 mM NaCl.
The other (collection) chamber contained the cathode submerged in a 10 mM Tris buffer at pH 8.5.
The two electrodes were connected to a power supply (Phoresor II Auto, lomed, USA) and a current of 0.6 mA (0.3 mA/cm^2) was passed between them for a total of 5.5 hours.
The entire contents of the cathode solution were withdrawn every 15 minutes and the chamber was then refilled with fresh buffer.
Glucose in each iontophoretic sample was analyzed by high-performance anion-exchange chromatography with pulsed amperometric detection.

[7] = In vitro reverse iontophoretic extraction of mannitol and sodium with varied sodium level (Example 4)
Procedure: The anode was placed in the sub-dermal, “donor” chamber, which contained a physiological pH 7.4 buffer (25 mM Tris/TrisHCl+4 mM KCl).
Both the concentration of the analyte of interest and the internal standard were modified during the experiment.
as §2, §3, §1
During the final 1-hour period, the donor solution was replaced with 5 mM mannitol/ 133 mM NaCl, and the cathodal chamber was then sampled every 30 minutes.

[8] = subdermal mannitol 5 mM, 60 min
[9] = subdermal mannitol 5 mM, 120 min
[10] = subdermal mannitol 5 mM, 180 min
[11] = subdermal mannitol 10 mM, 270 min
[12] = subdermal mannitol 10 mM, 300 min

For `[K+]` [K^+, potassium], the “Concentration in the cathode chamber after current passage” value [1] is listed as “about 14 μEq/L”.

For `CC(O)C(=O)O` (stereo not shown) [Lactate, lactate], the “Deduced transport number (×100)” value ([2]; 3 h) was 0.59 ± 0.08 ×100, the “Extracted flux ratio (×10^3) relative to K^+” value ([2]; 3 h) was 149 ± 3.3 ×10^3 and the “Extracted flux ratio (×10^3) relative to Na^+” value ([2]; 3 h) was 8.7 ± 0.1 ×10^3. For the same compound, the “K for analyte/internal standard couple, internal standard Na^+” value ([2]; 3 h) was 0.66 ± 0.01, the “Deduced transport number (×100)” value ([2]; 5 h) was 0.56 ± 0.07 ×100 and the “Extracted flux ratio (×10^3) relative to K^+” value ([2]; 5 h) was 138 ± 15 ×10^3. The “Extracted flux ratio (×10^3) relative to Na^+” value ([2]; 5 h) was 7.8 ± 1.1 ×10^3 and the “K for analyte/internal standard couple, internal standard Na^+” value ([2]; 5 h) was 0.60 ± 0.08.

With `[Na+]` [Na^+, sodium] the “Sodium^+ flux” value ([3]; subdermal mannitol 3 mM, 210 min) was 10.9 ± 0.7 μmol · h^−1 · cm^−2, the “Sodium^+ flux” value ([3]; subdermal mannitol 3 mM, 240 min) was 9.7 ± 0.5 μmol · h^−1 · cm^−2 and the “Sodium^+ flux” value [3, 8] was 8.8 ± 0.7 μmol · h^−1 · cm^−2. The “Sodium^+ flux” value [3, 9] was 10.2 ± 0.7 μmol · h^−1 · cm^−2, the “Sodium^+ flux” value [3, 10] was 10.4 ± 0.7 μmol · h^−1 · cm^−2 and the “Sodium^+ flux” value [3, 11] was 9.4 ± 0.6 μmol · h^−1 · cm^−2. For the same compound, the “Sodium^+ flux” value [3, 12] was 9.3 ± 0.4 μmol · h^−1 · cm^−2, the “Sodium^+ flux” value [4, 8] was 7.9 ± 0.5 μmol · h^−1 · cm^−2 and the “Sodium^+ flux” value [4, 9] was 9.7 ± 0.6 μmol · h^−1 · cm^−2. For the same compound, the “Sodium^+ flux” value [4, 10] was 10.1 ± 0.4 μmol · h^−1 · cm^−2, the “Sodium^+ flux” value ([4]; subdermal mannitol 10 mM, 210 min) was 10.3 ± 0.5 μmol · h^−1 · cm^−2 and the “Sodium^+ flux” value ([4]; subdermal mannitol 10 mM, 240 min) was 10.4 ± 0.6 μmol · h^−1 · cm^−2. For the same compound, the “Sodium^+ flux” value [4, 11] was 10.3 ± 0.4 μmol · h^−1 · cm^−2, the “Sodium^+ flux” value [4, 12] was 10.6 ± 0.3 μmol · h^−1 · cm^−2 and the “Sodium^+ flux” value ([4]; subdermal mannitol 10 mM, 330 min) was 10.7 ± 0.3 μmol · h^−1 · cm^−2. For the same compound, the “Sodium^+ flux” value ([4]; subdermal mannitol 10 mM, 360 min) was 10.5 ± 0.6 μmol · h^−1 · cm^−2, the “Concentration in the cathode chamber after current passage” value [1] was roughly 35 μEq/L and the “Sodium^+ flux” value ([5]; 60 min) was 8.7 ± 0.6 μmol · h^−1 · cm^−2. The “Sodium^+ flux” value ([5]; 120 min) was 9.8 ± 0.4 μmol · h^−1 · cm^−2, the “Sodium^+ flux” value ([5]; 180 min) was 10.1 ± 0.3 μmol · h^−1 · cm^−2 and the “Sodium^+ flux” value ([5]; 240 min) was 10.0 ± 0.3 μmol · h^−1 · cm^−2. The “Sodium^+ flux” value ([5]; 300 min) was 10.2 ± 0.3 μmol · h^−1 · cm^−2, the “Sodium^+ flux” value ([5]; 360 min) was 10.2 ± 0.3 μmol · h^−1 · cm^−2 and the “Deduced transport number (×100)” value ([2]; 3 h) was 67.72 ± 7.98 ×100. For the same compound, the “Deduced transport number (×100)” value ([2]; 5 h) was 72.07 ± 1.07 ×100, the “Iontophoretically extracted flux over the experiment” value [6] was “remained effectively constant” and the “Sodium^+ flux” value ([7]; subdermal [Mannitol]/[Na^+] 5/133 mM (last hour), 330 min) was 11.2 ± 1.2 μmol · h^−1 · cm^−2. The “Sodium^+ flux” value ([7]; subdermal [Mannitol]/[Na^+] 5/133 mM (last hour), 360 min) was 11.4 ± 0.3 μmol · h^−1 · cm^−2, the “Sodium^+ flux” value ([7]; subdermal [Mannitol]/[Na^+] 5/133 mM, 60 min) was 8.4 ± 0.8 μmol · h^−1 · cm^−2 and the “Sodium^+ flux” value ([7]; subdermal [Mannitol]/[Na^+] 5/133 mM, 120 min) was 10.7 ± 0.4 μmol · h^−1 · cm^−2. The “Sodium^+ flux” value ([7]; subdermal [Mannitol]/[Na^+] 5/133 mM, 180 min) was 11.0 ± 0.3 μmol · h^−1 · cm^−2.
